Assay results reported in patent US4226883A, “Carbamate derivatives and method for manufacture thereof” (priority 1974, dated 1980).
Where two headings read alike, the source gives them in different places.

How the values were obtained:
[1] = tested on: resistant green rice leafhoppers (R); conditions: 1440 min; for Insecticidal Activity R/S (resistant ratio): ratio of the resistant strain to the susceptible strain (LD50)
Procedure: (1) A 20-mg portion of a given test compound was weighed out and dissolved in 10 ml of acetone. The resultant solution was diluted at proper times with acetone.
(2) With a micro-syringe, the acetone solution of the test compound was topically applied to the thoracic region of female green rice leafhoppers at a fixed dose of 0.2 μl per head.
(3) The female green rice leafhoppers thus treated were placed in a plastic cup prepared in advance (measuring 7 cm in diameter and 3.5 cm in depth and containing rice seeds) and kept at a constant temperature of 26±1° C. After 24 hours' standing, the dead insects were counted.
In the case of a mixed insecticide, the LD50 was shown as a total dosage.

[2] = tested on: green rice leafhoppers of the strain RN; experiment: Test Example 3: dust spray test (20 mesh metal gauze cylinder); type: in vivo, Nephotettix cincticeps; conditions: for Effect of individual compound (RN), death ratio (%) (Table 9): dust, compound alone, RN strain
Procedure: The insecticides in the form of dust were tested for insecticidal activity.
The test for insecticidal activity was performed by the following procedure. […] The dust of a test compound (pulverized by means of a shaking pulverizer made by Taira Kosakusho, Ltd.) was applied onto the tube contents at a prescribed rate by spraying from outside the metal gauze by means of a bell-jar duster. The dust of the test compound was prepared uniformly mixing 2 parts of the dust of the individual compound or 1 part each of the dusts of the mixture components (total 2 parts) and 98 parts of a carrier obtained by mixing talc and clay in equal volumes.

[3] = molecular target: cholinesterase (ChE), susceptible strain; experiment: Inhibition of cholinesterase (acetylthiocholine method), susceptible strain enzyme; type: biochemical, green rice leafhopper, Nephotettix cincticeps; conditions: 50% inhibition concentration, 30° C. 30 min with inhibitor, read-out: Inhibition of Cholinesterase I50 (M) S
Procedure: The activity of ChE was performed by the acethyethiocholine method [Ellman (1961), Biochemical Pharmacology 7: 88-95].
[…]. After centrifuged (30,000 g, 10 min.), the supernatant was used as the source of ChE.
(§1) (2) Inhibition: 1.0 ml of enzyme solution was incubated with 0.1 ml of inhibitor which diluted with acetone at 30° C. for 30 min. ((2) solution).
(3) Determination of ChE activity: 1.0 ml of acetylthiochline (3.5/2×10^-2 M), 1.0 ml of DTNB (5,5'-dithiobis-2-nitrobenzoic acid, 2.5×10^-4 M) and 4.0 ml of phosphate buffer (1/15 M, pH 7.4) were added to the (2) solution and incubated at 30° C. for 10 min. After incubation, […] of eserine (2×10^-3 M) was added in order to stop the enzyme reaction and the optical density of the yellow solution was measured at 412 mμ on the spectrophotometer.

[4] = tested on: cholinesterase (ChE), resistant strain; type: biochemical, green rice leafhopper, Nephotettix cincticeps; conditions: for Inhibition of Cholinesterase R/S (resistant ratio): ratio of the resistant strain to the susceptible strain (I50), 30 min; for IC50: resistant strain, 50% inhibition concentration, 30° C. 30 min with inhibitor, read-out: Inhibition of Cholinesterase I50 (M) R
Procedure: After centrifuged (30,000 g, 10 min.), the supernatant was used as the source of ChE.
as §1
(3) Determination of ChE activity: 1.0 ml of acetylthiochline (3.5/2×10^-2 M), 1.0 ml of DTNB (5,5'-dithiobis-2-nitrobenzoic acid, 2.5×10^-4 M) and 4.0 ml of phosphate buffer (1/15 M, pH 7.4) were added to the (2) solution and incubated at 30° C. for 10 min.

[5] = 2% dust, 250 mg, 24 hr, read-out: Mortality (%) after 24 hr., 250 mg Spray (Table 7)
[6] = 2% dust, 100 mg, 24 hr, read-out: Mortality (%) after 24 hr., 100 mg Spray (Table 7)
[7] = Table 8, dust 100 mg, 24 hr, read-out: Mortality (%) after 24 hr., Spray Volume 100 mg
[8] = Table 8, dust 250 mg, 24 hr, read-out: Mortality (%) after 24 hr., Spray Volume 250 mg

SMILES | Insecticidal Activity R/S (resistant ratio) [1] | mortality at 250 mg/cylinder [2, 5] [%] | IC50 [3] [M] | Inhibition of Cholinesterase R/S (resistant ratio) [4] | IC50 [4] [M] | also measured
C=CCNC(=O)Oc1ccccc1C(C)C [Compound 5, 2-isopropylphenyl-N-allylcarbamate] | 3.1 |  |  |  |  | 
CCNC(=O)Oc1ccccc1C(C)CC (centres unmarked) [Compound 7, 2-sec-butylphenyl-N-ethylcarbamate] | 2.6 |  |  |  |  | 
C=CCNC(=O)Oc1ccccc1C(C)CC (centres unmarked) [Compound 10, 2-sec-butylphenyl-N-allylcarbamate] | 4.3 | 100 |  |  |  | 
CCCNC(=O)Oc1cccc(C(C)C)c1 [Compound 13, 3-isopropylphenyl-N-n-propylcarbamate] | 1.4 |  |  |  |  | 
CCCCNC(=O)Oc1cccc(C(C)C)c1 [Compound 14] |  |  | 7.4e-05 | 0.2 | 1.7e-05 | 
C=CCNC(=O)Oc1cccc(C(C)CCC)c1 (centres unmarked) [Compound 23] | 0.7 |  |  | 0.3 | 1.3e-06 | 
CNC(=O)Oc1cccc(C)c1 [Compound 24, 3-methylphenyl-N-methylcarbamate, reference compound] | 9.9 | 20 |  |  |  | mortality at 100 mg/cylinder [2, 6]: 0%; mortality at 100 mg/cylinder [2, 7]: 0%; mortality at 250 mg/cylinder [2, 8]: 20%; Effect of individual compound (RN), death ratio (%) (Table 9) [2]: 0%
CCNC(=O)Oc1cccc(C)c1 [Compound 25, 3-methylphenyl-N-ethylcarbamate] | 3.7 |  |  |  |  | 
CCCCNC(=O)Oc1cccc(C)c1 [Compound 27] |  |  | > 0.001 | < 0.3 | 0.00027 | 
C=CCNC(=O)Oc1cccc(C)c1 [Compound 28, 3-methylphenyl-N-allylcarbamate] | 1.8 | 100 |  |  |  | mortality at 100 mg/cylinder [2, 6]: 60%
CCCNC(=O)Oc1cccc(CC)c1 [Compound 31, 3-ethylphenyl-N-n-propylcarbamate] | 0.5 |  |  |  |  | 
CCCNC(=O)Oc1cccc(C(C)(C)C)c1 [Compound 33, 3-tert-butylphenyl-N-n-propylcarbamate] | 1.5 |  |  |  |  | 
CNC(=O)Oc1ccc(C)c(C)c1 [Compound 35, 3,4-dimethylphenyl-N-methylcarbamate, reference compound] | 4.7 |  |  |  |  | mortality at 100 mg/cylinder ([2]; 24 h, read-out: Mortality (%) after 24 hr., 100 mg Spray (Table 7)): 0%; mortality at 250 mg/cylinder ([2]; 24 h, read-out: Mortality (%) after 24 hr., 250 mg Spray (Table 7)): 0%; mortality at 100 mg/cylinder ([2]; 24 h, read-out: Mortality (%) after 24 hr., Spray Volume 100 mg): 0%; mortality at 250 mg/cylinder ([2]; 24 h, read-out: Mortality (%) after 24 hr., Spray Volume 250 mg): 0%
CCNC(=O)Oc1ccc(C)c(C)c1 [Compound 36, 3,4-dimethylphenyl-N-ethylcarbamate] | 3.3 | 80 |  |  |  | mortality at 100 mg/cylinder [2, 6]: 55%
CCCCNC(=O)Oc1ccc(C)c(C)c1 [Compound 38] |  |  | 0.00056 | 0.04 | 2e-05 | 
C=CCNC(=O)Oc1ccc(C)c(C)c1 [Compound 39, 3,4-dimethylphenyl-N-allylcarbamate] | 0.8 | 60 |  |  |  | mortality at 100 mg/cylinder [2, 6]: 50%
CNC(=O)Oc1cc(C)cc(C)c1 [Compound 40, 3,5-dimethylphenyl-N-methylcarbamate, reference compound] | 5.3 | 15 |  |  |  | mortality at 100 mg/cylinder [2, 6]: 5%; mortality at 100 mg/cylinder [2, 7]: 5%; mortality at 250 mg/cylinder [2, 8]: 15%; Effect of individual compound (RN), death ratio (%) (Table 9) [2]: 0%

SMILES | Insecticidal Activity R/S (resistant ratio) [1] | mortality at 250 mg/cylinder [2, 5] [%] | IC50 [3] [M] | Inhibition of Cholinesterase R/S (resistant ratio) [4] | IC50 [4] [M] | also measured
CCCCNC(=O)Oc1cc(C)cc(C)c1 [Compound 43] |  |  | 0.00068 | 0.04 | 2.7e-05 | 
C=CCNC(=O)Oc1cc(C)cc(C)c1 [Compound 44, 3,5-dimethylphenyl-N-allylcarbamate] | 0.9 | 80 |  |  |  | mortality at 100 mg/cylinder [2, 6]: 60%
CNC(=O)Oc1cc(C)cc(C(C)C)c1 [Compound 45, 3-methyl-5-isopropylphenyl-N-methylcarbamate, reference compound] | 11.6 | 10 |  |  |  | mortality at 100 mg/cylinder [2, 6]: 0%
CCNC(=O)Oc1cc(C)cc(C(C)C)c1 [Compound 46, 3-methyl-5-isopropylphenyl-N-ethylcarbamate] | 0.9 | 70 |  |  |  | mortality at 100 mg/cylinder [2, 6]: 45%
CCCNC(=O)Oc1cc(C)cc(C(C)C)c1 [Compound 47, 3-methyl-5-isopropylphenyl-N-n-propylcarbamate] | 1.4 | 100 |  |  |  | mortality at 100 mg/cylinder [2, 6]: 70%
CCCCNC(=O)Oc1cc(C)cc(C(C)C)c1 [Compound 48] |  |  | > 0.001 | < 0.09 | 8.8e-05 | 
CNC(=O)Oc1cc(C)c(C)cc1C [Compound 59, reference compound] |  |  | 2.3e-06 | 24.8 | 5.7e-05 | 
CNC(=O)Oc1ccccc1OC(C)C [Compound 81, 2-isopropoxyphenyl-N-methylcarbamate, reference compound] |  |  |  |  |  | Effect of individual compound, LD50 (μ g/g) (Table 5-2) ([1]; compound alone): > 100 μ g/g; death ratio (%), mixture with Compound No. 1 ([2]; Table 9, dust mixed with 1, RN): 0%; death ratio (%), mixture with Compound No. 6* ([2]; Table 9, dust mixed with 6*, RN): 5.0%; death ratio (%), mixture with Compound No. 24* ([2]; Table 9, dust mixed with 24*, RN): 0%; death ratio (%), mixture with Compound No. 35* ([2]; Table 9, dust mixed with 35*, RN): 15.0%; death ratio (%), mixture with Compound No. 40* ([2]; Table 9, dust mixed with 40*, RN): 20.0%; death ratio (%), mixture with Compound No. 49* ([2]; Table 9, dust mixed with 49*, RN): 0%; death ratio (%), mixture with Compound No. 81* ([2]; Table 9, dust mixed with 81*, RN): 10.0%; death ratio (%), mixture with Compound No. 118* ([2]; Table 9, dust mixed with 118*, RN): 57.5%; death ratio (%), mixture with Carbofuran ([2]; Table 9, dust mixed with Carbofuran, RN): 30.0%; death ratio (%), mixture with Methomyl ([2]; Table 9, dust mixed with Methomyl, RN): 35.0%; Effect of individual compound (RN), death ratio (%) (Table 9) [2]: 0%
CCC(C)Oc1ccccc1OC(=O)NC (centres unmarked) [Compound 86, reference compound] |  |  | 2.1e-06 | 31.9 | 6.7e-05 | 
C=CCOc1ccccc1OC(=O)NC [Compound 88, reference compound] |  |  | 7e-06 | 15.7 | 0.00011 | 
C#CCOc1ccccc1OC(=O)NC [Compound 90, reference compound] |  |  | 8.2e-06 | 9.6 | 7.9e-05 | 
CCNC(=O)Oc1cccc(OCC)c1 [Compound 93] |  |  | 0.00044 | 0.8 | 0.00035 | 
C=CCOc1cccc(OC(=O)NC)c1 [Compound 98, reference compound] |  |  | 4.1e-06 | 87.8 | 0.00036 | 
C#CCOc1cccc(OC(=O)NC)c1 [Compound 100, reference compound] |  |  | 3.5e-05 | 24.3 | 0.00085 | 
CNC(=O)Oc1ccccc1N(C)C [Compound 106, reference compound] |  |  | 9.6e-06 | 13.5 | 0.00013 | 
CNC(=O)ON=C(C)SC [Methomyl, 1(methylthio)ethylideneamino-N-methylcarbamate, reference compound] |  |  |  |  |  | Effect of individual compound (RN), death ratio (%) (Table 9) [2]: 35.0%
